# Data published in article PMC5806882, “Structural and biochemical characterization of the biuret hydrolase (BiuH) from the cyanuric acid catabolism pathway of Rhizobium leguminasorum bv. viciae 3841” (PLoS ONE, 2018).
# Target: biuret hydrolase (BiuH) (Rhizobium johnstonii, UniProt Q1M7F4, C175S)
# Test: X-ray crystal structure, […] Å
# Assay type: binding
# Sequence of biuret hydrolase (BiuH) (Q1M7F4 whole entry C175S): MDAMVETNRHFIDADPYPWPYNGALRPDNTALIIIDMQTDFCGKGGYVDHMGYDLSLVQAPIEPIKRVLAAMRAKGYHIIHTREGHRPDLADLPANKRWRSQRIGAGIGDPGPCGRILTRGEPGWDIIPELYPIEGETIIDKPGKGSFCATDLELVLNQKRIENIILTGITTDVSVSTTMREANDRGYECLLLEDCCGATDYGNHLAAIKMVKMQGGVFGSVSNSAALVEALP
smiles,measurement,value
NC(=O)NC(N)=O [biuret],"X-ray crystal structure, 2.22 Å",A structure of the inactive Cys175Ser variant with biuret in the active site was obtained (PDB ID: 6AZQ).
